In brackets after ≈: the same amount, converted by molar mass. Read-outs that look alike come from different tables or passages of the source.
What was measured:
A. baumannii 46 = experiment: In vitro antibacterial activity test (broth microdilution); type: cell-based; conditions: Acinetobacter baumannii; A. baumannii 46; read-out: MIC90
Procedure, shortened: (§1)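 MIC90 (ug/mL) reported. CLSI microdilution in broth, clinical strains, 0.0626–128 ug/mL final compound, 2.5% v/v DMSO co-solvent.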

A. baumannii 49 = experiment: as above; type: cell-based; conditions: Acinetobacter baumannii; A. baumannii 49; read-out: MIC90
Procedure, shortened: as §1

A. baumannii 52 = experiment: as above; type: cell-based; conditions: Acinetobacter baumannii; A. baumannii 52; read-out: MIC90
Procedure, shortened: as §1

[1] = system: A. calcoaceticus ATCC15473; experiment: as above; type: cell-based; conditions: Acinetobacter calcoaceticus; A. calcoaceticus ATCC15473; read-out: MIC90
Procedure, shortened: as §1

E. cloacae β19 = experiment: as above; type: cell-based
Procedure, shortened: as §1

E. coli AG100 = experiment: as above; type: cell-based; conditions: Escherichia coli, AG100, E. coli AG100; read-out: MIC90
Procedure, shortened: as §1

E. coli β4 = experiment: as above; type: cell-based; conditions: Escherichia coli, read-out: MIC90
Procedure, shortened: as §1

K. pneumoniae 2011E = experiment: as above; type: cell-based; conditions: Klebsiella pneumoniae, 2011E, K. pneumoniae 2011E; read-out: MIC90
Procedure, shortened: as §1

K. pneumoniae β10 = experiment: as above; type: cell-based; conditions: Klebsiella pneumoniae; K. pneumoniae β10; read-out: MIC90
Procedure, shortened: as §1

K. pneumoniae β11 = experiment: as above; type: cell-based; conditions: Klebsiella pneumoniae; K. pneumoniae β11; read-out: MIC90
Procedure, shortened: as §1

K. pneumoniae β13 = experiment: as above; type: cell-based; conditions: K. pneumoniae β13
Procedure, shortened: as §1

K. pneumoniae β14 = experiment: as above; type: cell-based; conditions: Klebsiella pneumoniae, read-out: MIC90
Procedure, shortened: as §1

K. pneumoniae β9 = experiment: as above; type: cell-based; conditions: Klebsiella pneumoniae, K. pneumoniae β9; read-out: MIC90
Procedure, shortened: as §1

M. catarrhalis 2524 = experiment: as above; type: cell-based; conditions: M. catarrhalis 2524
Procedure, shortened: as §1

P. aeruginosa 1912E = experiment: as above; type: cell-based
Procedure, shortened: as §1

P. aeruginosa 37 = experiment: as above; type: cell-based; conditions: Pseudomonas aeruginosa, 37, P. aeruginosa 37; read-out: MIC90
Procedure, shortened: as §1

P. aeruginosa 40 = experiment: as above; type: cell-based; conditions: Pseudomonas aeruginosa, 40, P. aeruginosa 40; read-out: MIC90
Procedure, shortened: as §1

P. aeruginosa 43 = experiment: as above; type: cell-based; conditions: Pseudomonas aeruginosa; P. aeruginosa 43; read-out: MIC90
Procedure, shortened: as §1

P. aeruginosa 6065Y = experiment: as above; type: cell-based
Procedure, shortened: as §1

[2] = system: A. baumannii (6 clinical isolates); experiment: Antibacterial activity on representative drug-resistance bacteria: number of clinical isolates per MIC value; type: cell-based; conditions: A. baumanni (N = 6)
Experimental: (§2) The in vitro antibacterial activity was evaluated by measuring MIC90 (ug/mL) of each of the compounds of Examples 1 to 68, which is defined as the lowest concentration of an antibiotic that will inhibit the visible growth of 90% of microorganisms after incubation as compared with a control group to which the antibiotic is not treated. MIC90 values were measured by the broth microdilution method developed by the Clinical and Laboratory Standards Institute (CLSI) (see CLSI M7-A5, Methods for Dilution Antimicrobial Susceptibility Test for Bacteria that Grow Aerobically-Fifth Edition (2000): CLSI, Villanova, Pa.).
(§3) Test compounds each (the cephalosporin derivative compounds prepared in Examples 1 to 68) were dissolved in DMSO at the concentration of 10,240 ug/mL, were diluted by two fold with DMSO, and then were diluted by twenty fold with sterilized distilled water. The final concentration in the antibacterial activity test was in the range of […] to 128 ug/mL, and the final concentration of DMSO used as an adjuvant was 2.5% (V/V).

[3] = system: K. pneumoniae (38 clinical isolates); experiment: as above; type: cell-based; conditions: K. pneumomiae (N = 38)
Experimental: as §2, §3

[4] = system: P. aeruginosa (16 clinical isolates); experiment: as above; type: cell-based; conditions: P. aeruginosa (N = 16)
Experimental: as §2, §3

[5] = Pharmacokinetics study in rat, IV; type: in vivo, SD rat; conditions: Rat (10 mg/kg) single IV; for AUC / Cmax / Tmax / clearance / half-life / Vd: SD, plasma; for Vd: read-out: Vss
Experimental: Test animals: 9 week old SD rat, weight 290˜310 g; 3 rats/sample time point
Lab conditions: Temperature of 21±2° C.; humidity of 50±20%
Administration method: Injecting test compound solution through tail vein (IV)
Test method: Blood samples were taken from jugular vein at a predetermined time period for 24 hours after administration, plasma was separated, and quantified by using LC-MS/MS.

19 clinical isolates = experiment: In vitro antibacterial activity test, panel of 19 clinical isolates as a whole; type: cell-based; conditions: effect of a siderophore group, Table 1
Experimental: To evaluate antibacterial activity of each of the compounds of Examples 1 to 68, in vitro antibacterial activity test was performed.
as §2
In vitro antibacterial activity was measured with respect to the following 19 clinical isolates: M. catarrhalis; P. aeruginosa (5 strains); K. pneumoniae (6 strains); A. baumannii (3 strains); E. coli (2 strains); A. calcoaceticus; and E. cloacae.
as §3

## CC(C)(O/N=C(\C(=O)N[C@@H]1C(=O)N2C(C(=O)[O-])=C(/C=C/C[n+]3cnc(N)c(NCCNC(=O)c4cc(=O)c(O)cn4O)c3)CSC12)c1csc(N)n1)C(=O)O (stereo partly shown) [Compound 8]
A. baumannii 46
  MIC90: 8 µg/mL (≈ 10 µM)
A. baumannii 49
  MIC90: > 128 µg/mL
A. baumannii 52
  MIC90: > 128 µg/mL
[1]
  MIC90: 2 µg/mL (≈ 2.5 µM)
E. cloacae β19
  MIC90: 32 µg/mL (≈ 40 µM)
E. coli AG100
  MIC90: 0.0625 µg/mL (≈ 0.0781 µM)
E. coli β4
  MIC90: 0.5 µg/mL (≈ 0.625 µM)
K. pneumoniae 2011E
  MIC90: 1 µg/mL (≈ 1.25 µM)
K. pneumoniae β10
  MIC90: < 0.0625 µg/mL
K. pneumoniae β11
  MIC90: 32 µg/mL (≈ 40 µM)
K. pneumoniae β13
  MIC90: 0.25 µg/mL (≈ 0.313 µM)
K. pneumoniae β14
  MIC90: 8 µg/mL (≈ 10 µM)
K. pneumoniae β9
  MIC90: 0.5 µg/mL (≈ 0.625 µM)
M. catarrhalis 2524
  MIC90: 0.5 µg/mL (≈ 0.625 µM)
P. aeruginosa 1912E
  MIC90: 1 µg/mL (≈ 1.25 µM)
P. aeruginosa 37
  MIC90: 1 µg/mL (≈ 1.25 µM)
P. aeruginosa 40
  MIC90: 0.5 µg/mL (≈ 0.625 µM)
P. aeruginosa 43
  MIC90: 1 µg/mL (≈ 1.25 µM)
P. aeruginosa 6065Y
  MIC90: 4 µg/mL (≈ 5 µM)
[2]; MIC 0.5 ug/mL
  number of clinical isolates that showed the respective MIC value: 1
[2]; MIC >16 ug/mL
  number of clinical isolates that showed the respective MIC value: 5
[3]; MIC 0.25 ug/mL
  number of clinical isolates that showed the respective MIC value: 1
[3]; MIC 8 ug/mL
  number of clinical isolates that showed the respective MIC value: 1
[3]; MIC <0.0625 ug/mL
  number of clinical isolates that showed the respective MIC value: 1
[3]; MIC >16 ug/mL
  number of clinical isolates that showed the respective MIC value: 35
[4]; MIC 0.125 ug/mL
  number of clinical isolates that showed the respective MIC value: 2
[4]; MIC 0.25 ug/mL
  number of clinical isolates that showed the respective MIC value: 1
[4]; MIC 0.5 ug/mL
  number of clinical isolates that showed the respective MIC value: 2
[4]; MIC 1 ug/mL
  number of clinical isolates that showed the respective MIC value: 2
[4]; MIC 2 ug/mL
  number of clinical isolates that showed the respective MIC value: 2
[4]; MIC 4 ug/mL
  number of clinical isolates that showed the respective MIC value: 3
[4]; MIC 8 ug/mL
  number of clinical isolates that showed the respective MIC value: 1
[4]; MIC >16 ug/mL
  number of clinical isolates that showed the respective MIC value: 3
[5]
  AUCnorm: 5.46 kg·h/L
  Cmax,norm: 19.61 kg/L
  AUC: 54600 ng·h/mL
  Cmax: 196 µg/mL
  Tmax: 1.2 min
  clearance: 3 mL/min/kg
  half-life: 52.2 min
  Vd: 0.09 L/kg
19 clinical isolates
  antibacterial activity (in words): significantly improved

## C[C@H](O/N=C(\C(=O)N[C@@H]1C(=O)N2C(C(=O)[O-])=C(C[n+]3cnc(N)c(NCCNC(=O)c4cc(=O)c(O)cn4O)c3)CSC12)c1nc(N)sc1Cl)C(=O)O (stereo partly shown) [Compound 4]
A. baumannii 46
  MIC90: 64 µg/mL (≈ 80.6 µM)
A. baumannii 49
  MIC90: 8 µg/mL (≈ 10.1 µM)
A. baumannii 52
  MIC90: 4 µg/mL (≈ 5.04 µM)
[1]
  MIC90: 2 µg/mL (≈ 2.52 µM)
E. cloacae β19; Enterobacter cloacae, read-out: MIC90
  MIC90: 1 µg/mL (≈ 1.26 µM)
E. coli AG100
  MIC90: 0.125 µg/mL (≈ 0.157 µM)
E. coli β4
  MIC90: 0.5 µg/mL (≈ 0.63 µM)
K. pneumoniae 2011E
  MIC90: 2 µg/mL (≈ 2.52 µM)
K. pneumoniae β10
  MIC90: 0.5 µg/mL (≈ 0.63 µM)
K. pneumoniae β11
  MIC90: 4 µg/mL (≈ 5.04 µM)
K. pneumoniae β13; Klebsiella pneumoniae, read-out: MIC90
  MIC90: 1 µg/mL (≈ 1.26 µM)
K. pneumoniae β14
  MIC90: 32 µg/mL (≈ 40.3 µM)
K. pneumoniae β9
  MIC90: 0.5 µg/mL (≈ 0.63 µM)
M. catarrhalis 2524; Moraxella catarrhalis, read-out: MIC90
  MIC90: 0.25 µg/mL (≈ 0.315 µM)
P. aeruginosa 1912E; Pseudomonas aeruginosa, 1912E, read-out: MIC90
  MIC90: 0.5 µg/mL (≈ 0.63 µM)
P. aeruginosa 37
  MIC90: 0.5 µg/mL (≈ 0.63 µM)
P. aeruginosa 40
  MIC90: 1 µg/mL (≈ 1.26 µM)
P. aeruginosa 43
  MIC90: 1 µg/mL (≈ 1.26 µM)
P. aeruginosa 6065Y; Pseudomonas aeruginosa, read-out: MIC90
  MIC90: 0.5 µg/mL (≈ 0.63 µM)
[2]; MIC 0.125 ug/mL
  number of clinical isolates that showed the respective MIC value: 1
[2]; MIC 2 ug/mL
  number of clinical isolates that showed the respective MIC value: 2
[2]; MIC >16 ug/mL
  number of clinical isolates that showed the respective MIC value: 3
[3]; MIC 0.25 ug/mL
  number of clinical isolates that showed the respective MIC value: 1
[3]; MIC 1 ug/mL
  number of clinical isolates that showed the respective MIC value: 1
[3]; MIC 2 ug/mL
  number of clinical isolates that showed the respective MIC value: 3
[3]; MIC 4 ug/mL
  number of clinical isolates that showed the respective MIC value: 2
[3]; MIC 8 ug/mL
  number of clinical isolates that showed the respective MIC value: 3
[3]; MIC 16 ug/mL
  number of clinical isolates that showed the respective MIC value: 2
[3]; MIC >16 ug/mL
  number of clinical isolates that showed the respective MIC value: 26
[4]; MIC 0.0625 ug/mL
  number of clinical isolates that showed the respective MIC value: 1
[4]; MIC 0.25 ug/mL
  number of clinical isolates that showed the respective MIC value: 5
[4]; MIC 0.5 ug/mL
  number of clinical isolates that showed the respective MIC value: 2
[4]; MIC 1 ug/mL
  number of clinical isolates that showed the respective MIC value: 1
[4]; MIC 2 ug/mL
  number of clinical isolates that showed the respective MIC value: 2
[4]; MIC 4 ug/mL
  number of clinical isolates that showed the respective MIC value: 1
[4]; MIC 8 ug/mL
  number of clinical isolates that showed the respective MIC value: 1
[4]; MIC >16 ug/mL
  number of clinical isolates that showed the respective MIC value: 3
[5]
  AUCnorm: 4.03 kg·h/L
  Cmax,norm: 7.58 kg/L
  AUC: 40300 ng·h/mL
  Cmax: 75.8 µg/mL
  Tmax: 1.2 min
  clearance: 4.17 mL/min/kg
  half-life: 37.2 min
  Vd: 0.2 L/kg
19 clinical isolates
  antibacterial activity (in words): significantly improved
